Where no end group is shown, it is not given here.
Key:
FVIII inhibited plasma = assay: Defined Dual-Pathway Thrombin Generation Assay (DDPTGA, reagent C high), FVIII inhibited plasma; format: biochemical, human; conditions: for Peak IIa FEIBA EU / Peak IIa FVIIa EU / Peak Time FEIBA EU / Peak Time FVIIa EU: FVIII inhibited plasma
FVIII deficient plasma = assay: Defined Dual-Pathway Thrombin Generation Assay (DDPTGA, reagent C high), FVIII deficient plasma; format: biochemical, human; conditions: FVIII deficient plasma
[1] = pH 7.4
HERG channel = HERG channel (Homo sapiens, UniProt Q12809); assay: HERG inhibition, patch clamp assay
HERG channel, sequence (Q12809 whole entry): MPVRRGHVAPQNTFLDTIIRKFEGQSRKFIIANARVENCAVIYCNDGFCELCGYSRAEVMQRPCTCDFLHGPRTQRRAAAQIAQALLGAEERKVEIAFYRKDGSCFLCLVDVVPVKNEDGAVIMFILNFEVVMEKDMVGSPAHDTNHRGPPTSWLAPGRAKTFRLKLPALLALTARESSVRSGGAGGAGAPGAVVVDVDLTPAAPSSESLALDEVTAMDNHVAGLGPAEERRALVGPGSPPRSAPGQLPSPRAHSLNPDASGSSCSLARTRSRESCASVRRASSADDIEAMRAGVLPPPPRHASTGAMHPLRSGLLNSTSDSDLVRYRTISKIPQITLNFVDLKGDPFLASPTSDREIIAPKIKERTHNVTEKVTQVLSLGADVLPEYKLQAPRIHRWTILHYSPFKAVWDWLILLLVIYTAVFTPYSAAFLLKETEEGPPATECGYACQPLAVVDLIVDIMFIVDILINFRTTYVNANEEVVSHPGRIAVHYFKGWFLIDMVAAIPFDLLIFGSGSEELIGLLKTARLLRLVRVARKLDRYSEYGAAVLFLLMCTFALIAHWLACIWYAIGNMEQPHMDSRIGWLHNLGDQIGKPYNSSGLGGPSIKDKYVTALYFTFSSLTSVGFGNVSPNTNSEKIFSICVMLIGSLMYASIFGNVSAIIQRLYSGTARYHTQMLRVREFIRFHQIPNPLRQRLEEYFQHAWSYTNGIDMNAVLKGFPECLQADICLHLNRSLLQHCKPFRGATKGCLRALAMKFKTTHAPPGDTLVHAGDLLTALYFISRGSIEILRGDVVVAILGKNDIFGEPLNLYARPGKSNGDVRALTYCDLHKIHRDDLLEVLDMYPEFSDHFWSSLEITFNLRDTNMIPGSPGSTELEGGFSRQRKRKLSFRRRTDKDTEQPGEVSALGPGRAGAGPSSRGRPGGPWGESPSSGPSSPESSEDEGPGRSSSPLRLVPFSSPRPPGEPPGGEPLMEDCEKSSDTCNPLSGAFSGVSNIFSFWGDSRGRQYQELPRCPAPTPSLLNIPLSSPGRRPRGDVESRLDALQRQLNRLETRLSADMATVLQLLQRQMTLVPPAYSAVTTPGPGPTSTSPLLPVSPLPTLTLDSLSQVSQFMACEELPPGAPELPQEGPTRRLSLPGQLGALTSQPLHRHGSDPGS
Experimental: QT prolongation is assessed by HERG inhibition measured by patch-clamp techniques or Rb^+ efflux.
For rigorous characterization of HERG inhibition the patch clamp assay is applied (Cerep, France, Catalog ref. 900-36). […] The test compounds (10 mM stock solutions) were dissolved in dimethylsulfoxide (DMSO). The solutions at 1 μM contained 0.01% DMSO.

Substance | Peak IIa FEIBA EU (FVIII inhibited plasma; peptide 50 μM) | Peak IIa FVIIa EU (FVIII inhibited plasma; peptide 50 μM) | Peak Time FEIBA EU (FVIII inhibited plasma; peptide 50 μM) | Peak Time FVIIa EU (FVIII inhibited plasma; peptide 50 μM) | Peak IIa FEIBA EU (FVIII inhibited plasma; peptide 100 μM) | Peak IIa FVIIa EU (FVIII inhibited plasma; peptide 100 μM) | Peak Time FEIBA EU (FVIII inhibited plasma; peptide 100 μM) | Peak Time FVIIa EU (FVIII inhibited plasma; peptide 100 μM) | Peak IIa FVIII EU (FVIII deficient plasma; peptide 50 μM) | Peak Time FVIII EU (FVIII deficient plasma; peptide 50 μM) | Peak IIa FVIII EU (FVIII deficient plasma; peptide 100 μM) | Peak Time FVIII EU (FVIII deficient plasma; peptide 100 μM) | Aqueous solubility [1] | Solubility in PBS [1] | Classification as HERG-channel blocker (potency ranking of Roche et al.) (HERG channel) | Activity in the Defined Dual-Pathway Thrombin Generation Assay (FVIII inhibited plasma; summary, FVIII inhibited or deficient plasma)
PEG5000-RMKFDVWDLYFEIVW-NH2 [Peptide A16] | BLS (BLS = below lowest standard.) | BLS (BLS = below lowest standard.) | BLS (BLS = below lowest standard.) | BLS (BLS = below lowest standard.) | BLS (BLS = below lowest standard.) | BLS (BLS = below lowest standard.) | BLS (BLS = below lowest standard.) | BLS (BLS = below lowest standard.) | BLS (BLS = below lowest standard.) | BLS (BLS = below lowest standard.) | BLS (BLS = below lowest standard.) | BLS (BLS = below lowest standard.) | 220 µM | >200 µM | low-potency | 
PEG5000-WSLYFEIVWE [Peptide A17] | BLS (BLS = below lowest standard.) | BLS (BLS = below lowest standard.) | BLS (BLS = below lowest standard.) | BLS (BLS = below lowest standard.) | BLS (BLS = below lowest standard.) | BLS (BLS = below lowest standard.) | BLS (BLS = below lowest standard.) | 0.1 nM | BLS (BLS = below lowest standard.) | 5.1 mU/ml | BLS (BLS = below lowest standard.) | 5.9 mU/ml | 2000 µM |  |  | possess activity
